The record followed here is patent publication US7524880B2, “Crystalline form of a substituted pyrrolidine compound” (Theravance, Inc., priority 2004, dated 2009).

One may read the Ki as the dissociation constant of the complex between target and ligand, obtained from inhibition or displacement.

One assay addresses T1, hM2 receptor (Homo sapiens, UniProt P08172).
T1 construct: expressed in transfected cells; host or cells: CHO-K1 cells
T1 sequence (P08172 1-466): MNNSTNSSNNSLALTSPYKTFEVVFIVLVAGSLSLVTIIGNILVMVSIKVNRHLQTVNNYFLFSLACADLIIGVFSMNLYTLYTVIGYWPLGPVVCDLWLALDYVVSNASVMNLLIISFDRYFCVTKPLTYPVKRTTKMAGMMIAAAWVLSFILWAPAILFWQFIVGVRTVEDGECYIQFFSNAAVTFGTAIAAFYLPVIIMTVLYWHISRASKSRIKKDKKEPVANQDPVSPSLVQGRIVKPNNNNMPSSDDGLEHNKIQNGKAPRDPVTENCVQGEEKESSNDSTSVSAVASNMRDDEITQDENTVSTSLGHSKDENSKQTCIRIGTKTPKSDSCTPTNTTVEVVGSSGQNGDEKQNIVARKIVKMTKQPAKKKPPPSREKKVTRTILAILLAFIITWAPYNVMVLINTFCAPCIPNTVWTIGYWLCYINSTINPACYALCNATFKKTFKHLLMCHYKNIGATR
The experiment in a line: Blockade of agonist-mediated [35S]GTPγS binding. The format is biochemical. As to conditions: CHO-K1 cells expressing the hM2 receptor (membranes); read-out: Ki value for blockade of oxotremorine-stimulated [35S]GTPγS binding. The method, then:
B. Blockade of Agonist-Mediated [^35 S]GTPγS Binding
In a second functional assay, the functional potency of a test compound is determined by measuring the ability of the compound to block oxotremorine-stimulated [^35S]GTPγS binding in CHO-K1 cells expressing the hM2 receptor.
At the time of use, frozen membranes were thawed and then diluted in assay buffer with a final target tissue concentration of 5-10 μg protein per well. The membranes were briefly homogenized using a Polytron PT-2100 tissue disrupter and then added to the assay plates.
The EC90 value (effective concentration for 90% maximal response) for stimulation of [^35S]GTPγS binding by the agonist oxotremorine was determined in each experiment.
The assay plates were then incubated at 37° C. for 60 minutes. The assay plates were filtered over 1% BSA-pretreated GF/B filters using a PerkinElmer 96-well harvester. The plates were rinsed with ice-cold wash buffer for 3×3 seconds and then air or vacuum dried. Microscint-20 scintillation liquid (50 μL) was added to each well, and each plate was sealed and radioactivity counted on a topcounter (PerkinElmer). Data were analyzed by nonlinear regression analysis with the GraphPad Prism Software package (GraphPad Software, Inc., San Diego, Calif.) using the non-linear regression, one-site competition equation. […]

Assay [1] deals with pilocarpine-evoked salivation. The experiment in a line: Inhalation guinea pig salivation assay. It counts as in vivo. The protocol: Guinea pigs (Charles River, Wilmington, Mass.) weighing 200-350 g were acclimated to the in-house guinea pig colony for at least 3 days following arrival. Test compound or vehicle were dosed via inhalation (IH) over a 10 minute time period in a pie shaped dosing chamber (R+S Molds, San Carlos, Calif.). Test solutions were dissolved in sterile water and delivered using a nebulizer filled with 5.0 mL of dosing solution. Guinea pigs were restrained in the inhalation chamber for 30 minutes. During this time, guinea pigs were restricted to an area of approximately 110 cm^2. This space was adequate for the animals to turn freely, reposition themselves, and allow for grooming. […] Upon completion of nebulization, guinea pigs were evaluated at 1.5, 6, 12, 24, 48, or 72 hrs after treatment.
Guinea pigs were anesthetized one hour before testing with an intramuscular (IM) injection of a mixture of ketamine 43.75 mg/kg, xylazine 3.5 mg/kg, and acepromazine 1.05 mg/kg at an 0.88 mL/kg volume. […] Saliva was collected for 10 minutes, at which point the gauze pad was weighed and the difference in weight recorded to determine the amount of accumulated saliva (in mg). The mean amount of saliva collected for animals receiving the vehicle and each dose of test compound was calculated. […] Results were calculated using result means (n=3 or greater). […]

With `CNCCCCCCCCN1CC[C@@H](C(C(N)=O)(c2ccccc2)c2ccccc2)C1` [compound of formula I, 2-[(S)-1-(8-methylaminooctyl)pyrrolidin-3-yl]-2,2-diphenylacetamide], the Ki at hM2 receptor was less than 5 nM. Moreover, in assay [1], the “apparent lung selectivity index (ratio of anti-sialagogue ID50 to bronchoprotective ID50)” value is reported as “greater than 5”.
